Measurements reported in patent US20240000741A1, “ALL-TRANS RETINOIC ACID ENHANCES RADIOTHERAPY AND OVERCOMES IMMUNE SUPPRESSION FOR CANCER THERAPY” (The University of Chicago, priority 2022, published 2024).

Legend:
CD11b+CD11c+ cells = test: Quantitative real-time PCR of cells sorted from tumors; format: in vivo, mouse
Excerpt: Total RNA from tumor and CD11c+ cells isolated from tumors with a kit sold under the tradename EASYSEP® Mouse CD11c positive selection kit II (STEMCELL Technologies, Vancouver, Canada) was extracted with a kit sold under the tradename QUICK-RNA® Miniprep Plus kit (R1058, Zymo Research, Irvine, California, United States of America). cDNA was synthesized with a High Capacity cDNA Reverse Transcription kit (4368814, Applied Biosystems, Waltham, Massachusetts, United States of America). Real-time PCR was performed with a kit containing fluorescent chemicals sold under the tradename SYBR™ (Molecular Probes, Sunnyvale, California, United States of America), i.e., the SYBR™ Green PCR Master Mix (4309155, Applied Biosystems, Waltham, Massachusetts, United States of America) and results were normalized to β-actin. Primers used: […]
Relative gene expression was calculated using the 2^−ΔΔCT approach.

LLC cells = test: Tumor re-challenge of cured mice with LLC cells; format: in vivo, mouse; settings: mice cured by IR+RA vs naive mice, 1×10^6 LLC cells
Description: 1×10^6 MC38, B16/F1, Renca or CT26 cells were subcutaneously implanted into flanks of mice. Tumors were irradiated using a Phillips IR250 orthovoltage X-ray generator (Phillips, Amsterdam, the Netherlands) operating at 250 kV 15 mA. Subcutaneous local tumors were irradiated by shielding bodies with a cylindrical lead cover with only flank tumors exposed for radiation. ATRA (400 μg/mice/day) was administered by oral gavage for 10 days. For the two-tumor model, 1×10^6 and 0.7×10^6 MC38 cells were subcutaneously implanted into the right and left flank of mice respectively. For the tumor re-challenge assay, both the cured mice and the naive mice were re-challenged with 5×10^6 MC38 or 1×10^6 LLC cells respectively. Tumors were measured along two diameters (length and width) and depth twice weekly and volumes were calculated as length×width×depth/2. For CD8 and CD4 T cell depletion experiments, 200 μg antibodies were injected i.p. on day 0, 2, 5 and 8 after radiation. Anti-CD11b antibody was injected i.p. every two days starting 1 day before radiation. Anti-PD-L1 antibody was administered i.p. on day 0, 3, and 7 after radiation at 200 μg/mouse. Anti-IFN-γ was administered i.p. at 500 μg/mouse every 7 days. Anti-NK1.1 antibody was administered via i.p. at 25 μg/mouse every 3 days for 3 doses. Anti-GM-CSF antibody was given by i.p. injection at 250 μg/mouse every 2 days. […]

nitrite (iNOS product) = test: Nitrite assay of tumor fragments cultured ex vivo; format: in vivo, mouse; settings: IR+RA treated tumors, day 4, 2 hours culture
Description: Whole tumors were excised at indicated time point post treatment. Tumors were weighed and homogenized in PBS with the presence of protease inhibitor cocktails at a ratio of 1 ml per gram of tissue. 25 μl of supernatants were subjected to a bead-based cytokine and chemokine assay (a mouse inflammation panel and chemokine panel sold under the tradename LEGENDPLEX™ (BioLegend, San Diego, California, United States of America). The assays were analyzed using a LSRII flow cytometer and software sold under the tradename LEGENDPLEX™ (both from BioLegend, San Diego, California, United States of America). IFN-γ was measured using IFN-γ flex CBA set (BD Biosciences, Franklin Lakes, New Jersey, United States of America). TNF-α concentration was measured using ELISA kit from R&D Systems (MTA00B; Minneapolis, Minnesota, United States of America). For nitrite assay, equal weight of tumors were cut into pieces and cultured in DMEM medium for 2 hours. The production of NO in the supernatants was measured indirectly by measuring the concentration of nitrite by using the Griess reagent nitrite measurement kit (Cell Signaling Technology, Danvers, Massachusetts, United States of America; #13547).

[1] = tested on: MC38 tumor in Rag1−/− mice; settings: ATRA 400 ug/each oral gavage daily plus X-ray 2 Gy/fraction, three consecutive days
Description: To further study whether T cell responses are important for the antitumor efficacy of ATRA (+) treatment, 2×10^6 MC38 cells were inoculated into the right flanks of Rag1^−/− […] mice, which are deficient of T and B cells. When the tumors reached 100-120 mm^3 in volume, Rag1^−/− mice were administered 400 ug/each ATRA daily via oral gavage followed by 2 Gy/fraction X-ray on three consecutive days. The tumor size was measured with a caliper every day and the tumor volume calculated as 0.5×length×width 2. All of the mice were sacrificed when the control group tumors reached about 2000 mm^3.

[2] = tested on: CT26 (a colon cancer model); test: CT26 tumor growth after IR and RA (ablative IR); format: in vivo, mouse; settings: IR and RA combination compared with single treatments
Description: 1×10^6 MC38, B16/F1, Renca or CT26 cells were subcutaneously implanted into flanks of mice. Tumors were irradiated using a Phillips IR250 orthovoltage X-ray generator (Phillips, Amsterdam, the Netherlands) operating at 250 kV 15 mA. Subcutaneous local tumors were irradiated by shielding bodies with a cylindrical lead cover with only flank tumors exposed for radiation. ATRA (400 μg/mice/day) was administered by oral gavage for 10 days. For the two-tumor model, 1×10^6 and 0.7×10^6 MC38 cells were subcutaneously implanted into the right and left flank of mice respectively. […] Tumors were measured along two diameters (length and width) and depth twice weekly and volumes were calculated as length×width×depth/2. For CD8 and CD4 T cell depletion experiments, 200 μg antibodies were injected i.p. on day 0, 2, 5 and 8 after radiation. Anti-CD11b antibody was injected i.p. every two days starting 1 day before radiation. Anti-PD-L1 antibody was administered i.p. on day 0, 3, and 7 after radiation at 200 μg/mouse. Anti-IFN-γ was administered i.p. at 500 μg/mouse every 7 days. Anti-NK1.1 antibody was administered via i.p. at 25 μg/mouse every 3 days for 3 doses. Anti-GM-CSF antibody was given by i.p. injection at 250 μg/mouse every 2 days. FTY720 was delivered via gavage at 20 μg per dose every day for 7 days. […]

[3] = cells sorted from treated tumors
[4] = radiation and RA treatment compared to controls

CC1=C(/C=C/C(C)=C/C=C/C(C)=C/C(=O)O)C(C)(C)CCC1 [RA, all-trans retinoic acid]
mRNA level of TNF-α in sorted CD11b+CD11c+ cells (CD11b+CD11c+ cells; [3]): increased
mRNA level of iNOS in sorted CD11b+CD11c+ cells (CD11b+CD11c+ cells; [3]): increased
transcription of CXCL9 in CD11c+ cells (CD11b+CD11c+ cells; [4]): increased significantly
transcription of CXCL10 in CD11c+ cells (CD11b+CD11c+ cells; [4]): increased significantly
transcription of CXCL11 in CD11c+ cells (CD11b+CD11c+ cells; [4]): increased significantly
growth of LLC after re-challenge (LLC cells): grew at the same rate
nitrite level in culture media of tumors cultured ex vivo (nitrite (iNOS product)): 19.8 µM
therapeutic effect on MC38 tumors in Rag1−/− mice [1]: did not show any therapeutic effect
CT26 tumor growth [2]: significant benefit
